Source: patent US11478496B2, “Treatments of prostate cancer” (THE FLORIDA INTERNATIONAL UNIVERSITY BOARD OF TRUSTEES, priority 2020, dated 2022)

What was measured:
RWPE1 cells [1] = test: RTCA impedance proliferation assay, RWPE1; assay type: cell-based; details: 10 μM; serum free medium
Method: (6A-6B) PNT1A cells were plated onto xCelligence E-plates at 5×10^4 cells per well in media supplemented with 10% FBS (6A) or CSS (6B). Cells were allowed to attach overnight and treated with vehicle (DMSO) or 10 μM of indicated compounds. Cellular impedance was monitored continuously with 30 min intervals. (6C) RWPE1 cells were plated at 5×10^4 cells per well in serum free medium supplemented with Epidermal Growth Factor (EGF) and Bovine Pituitary Extract ([…]) onto E-plates and treated with 10 μM of indicated compounds as indicated. […] Proliferation assays were done using Roche DP Real Time Cell Analyzer (RTCA), as described by the manufacturer. Background impedance was established after incubating E-plates (Acea Biosciences, San Diego, Calif.) with 50 μL media at room temperature for 30 min and placed in RTCA. Cells were then seeded in 100 μL per well. Cells attached overnight and then treated. During attachment stage and after treatment impedance was measured every 30 min. Impedance is represented by cell index and is calculated as follows: CI=(Zi−Zo)/15Ω where Zi is impedance at an individual time point, and Zo is the background impedance. Average CI was calculated from four wells per treatment at each time point and normalized to the impedance immediately after compound addition.

LNCaP cells [2] = test: MTT viability/toxicity assay, LNCaP; assay type: cell-based; details: 48 h
Method: Cells were seeded in a 96 well plate at 1×10^4 cells/well and allowed to adhere overnight in the presence of FBS or CSS. The following day treatment was added to the wells and the plates were incubated for 24 h or 48 h. After incubation, 50 μL of MTT (2 mg/mL) was added to each well and incubated in the dark for 4 h. After incubation 150 μL of the media/MTT solution was removed and 100 μL of DMSO was added to each well and incubated for 15 min. Absorbance at 570 nm was measured using a ClarioStar Plate Reader (BMG LabTech, Ortenburg, Germany).

LNCaP cells [3] = test: Cell Titer Glo cell viability assay, LNCaP; assay type: cell-based; details: 10 μM; androgen depleted conditions (CSS); 24 and 48 h
Method: FIGS. 3A-3B show cellular toxicity of the lead compounds in androgen-dependent prostate cancer cell lines. (3A) LNCaP cells were plated in a 96-well plate at 1×10^4 cells/well in the presence of Fetal Bovine Serum (FBS) or Charcoal stripped Serum (CSS). Cells were allowed to attach overnight and were treated with either vehicle (DMSO) or 10 μM of indicated compound. At 24 and 48 h cellular viability was compared using the Cell Titer Glo Luminescent Cell Viability kit. (3B) LAPC4 cells were plated in a 96-well plate at a density of 1×10^4 cells/well in the presence of FBS or CSS. Cells were allowed to attach overnight and treated with 10 μM of indicated compound.
(§1) Cell viability was determined using the Cell Titer Glo Cell Viability Assay (Promega, Madison, Wis.), as recommended by manufacturer. All experiments were performed in quadruplicate.

FEN1 = FEN1 (Homo sapiens, UniProt P39748); test: FEN1 activity; assay type: biochemical
Method: 10 μM hit compounds were incubated with 10 nM pol β, 10 nM FEN1 and 20 nM LIG I in BER reaction buffer containing 50 mM Tris-HCl (pH 7.5), 50 mM KCl, 0.1 mM EDTA, 0.1 mg/ml bovine serum albumin, and 0.01% Nonidet P-40 in the presence of 5 mM Mg^2+ and 2 mM ATP. The compounds were initially preincubated with a BER enzyme at varying concentrations for 1 h with rotation. This was followed by the addition of 25 nM ^32P-labeled substrate containing an abasic site, which was precut with 25 or 50 nM APEI. The reaction mixture (20 μL) was incubated at 37° C. for 30 min, and the reaction was terminated by 50 mM EDTA. Substrates, products, and unrepaired BER intermediates were separated by 15% urea-denaturing sequencing gel and detected by a Pharos FX Plus PhosphorImager (Bio-Rad, Hercules, Calif.).

LNCaP cells [4] = test: RTCA impedance proliferation assay, LNCaP; assay type: cell-based; details: 10 μM; for LNCaP cell proliferation, concentration dependence: 1 μM and 0.1 μM
Method: (5A-5B) LNCaP cells were plated onto xCelligence E-plates at 10^4 cells per well in medium supplemented with either 10% FBS (5A) or 10% CSS (5B) serum. […] (5C-5D) LAPC4 cells were plated at 5×10^4 cells per well onto xCelligence E-plates in media supplemented with FBS (5C) or CSS (5D) and allowed to attach overnight. Treatment was conducted as in (5A-5B) and impedance measured continuously in 30 min intervals. […] Background impedance was established after incubating E-plates (Acea Biosciences, San Diego, Calif.) with 50 μL media at room temperature for 30 min and placed in RTCA. Cells were then seeded in 100 μL per well. Cells attached overnight and then treated. During attachment stage and after treatment impedance was measured every 30 min. Impedance is represented by cell index and is calculated as follows: CI=(Zi−Zo)/15Ω where Zi is impedance at an individual time point, and Zo is the background impedance. Average CI was calculated from four wells per treatment at each time point and normalized to the impedance immediately after compound addition.

RWPE1 cells [5] = test: Cell Titer Glo cell viability assay, RWPE1; assay type: cell-based; details: 10 μM; after 24 h and 48 h; serum free medium with EGF and BPE
Method: FIGS. 4A-4B show cellular toxicity of lead compounds in nonmalignant androgen independent prostate-derived cell lines. (4A) PNT1A cells were plated in a 96-well plate at 1×10^4 cell/well in the presence of FBS or CSS. Cells were allowed to attach overnight and were treated with either vehicle (DMSO) or 10 μM of indicated compound. At 24 and 48 h, cellular viability was compared using the Cell Titer Glo Luminescent Cell Viability kit. (4B) RWPE1 cells were plated in a 96-well plate at 1×10^4 cells/well using the specified serum free media. Cells were allowed to attach overnight and treated with 10 μM of indicated compound.
as §1
Next, whether the same concentration of compounds decreases the viability of the AR negative and nonmalignant prostate derived cells, PNT1A and RWPE1, was tested.

LAPC4 cells = test: RTCA impedance proliferation assay, LAPC4; assay type: cell-based, human; details: 10 μM; medium with both FBS and CSS
Method: (5A-5B) LNCaP cells were plated onto xCelligence E-plates at 10^4 cells per well in medium supplemented with either 10% FBS (5A) or 10% CSS (5B) serum. Cells attached overnight and were treated with vehicle (DMSO) or 10 μM of the indicated compounds. (5C-5D) LAPC4 cells were plated at 5×10^4 cells per well onto xCelligence E-plates in media supplemented with FBS (5C) or CSS (5D) and allowed to attach overnight. Treatment was conducted as in (5A-5B) and impedance measured continuously in 30 min intervals. […] Proliferation assays were done using Roche DP Real Time Cell Analyzer (RTCA), as described by the manufacturer. Background impedance was established after incubating E-plates (Acea Biosciences, San Diego, Calif.) with 50 μL media at room temperature for 30 min and placed in RTCA. Cells were then seeded in 100 μL per well. Cells attached overnight and then treated. During attachment stage and after treatment impedance was measured every 30 min. Impedance is represented by cell index and is calculated as follows: CI=(Zi−Zo)/15Ω where Zi is impedance at an individual time point, and Zo is the background impedance. Average CI was calculated from four wells per treatment at each time point and normalized to the impedance immediately after compound addition.

Chain of FEN1 (P39748 whole entry): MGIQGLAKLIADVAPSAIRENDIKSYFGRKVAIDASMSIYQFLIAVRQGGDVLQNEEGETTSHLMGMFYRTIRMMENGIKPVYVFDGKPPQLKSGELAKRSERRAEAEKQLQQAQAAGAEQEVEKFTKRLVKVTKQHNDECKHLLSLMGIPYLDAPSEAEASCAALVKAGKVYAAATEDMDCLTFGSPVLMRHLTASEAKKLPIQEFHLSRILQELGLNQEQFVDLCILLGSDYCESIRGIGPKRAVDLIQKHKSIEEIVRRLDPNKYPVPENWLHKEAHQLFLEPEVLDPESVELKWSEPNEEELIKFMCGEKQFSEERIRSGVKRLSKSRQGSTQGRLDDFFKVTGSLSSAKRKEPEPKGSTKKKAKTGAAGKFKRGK

In the case of `C[C@@H]1C/C=C/C=C/C=C/C=C/[C@H](O[C@@H]2O[C@H](C)[C@@H](O)[C@H](N)[C@@H]2O)C[C@@H]2O[C@](O)(C[C@@H](O)C[C@H]3O[C@@H]3/C=C/C(=O)O1)C[C@H](O)[C@H]2C(=O)O` [natamycin], the RWPE1 proliferation (RWPE1 cells [1]) is reported as “slightly inhibited”, the “concentration reducing viability of LNCaP cells” value (LNCaP cells [2]; CSS medium) is reported as at least 0.1 µM and the “concentration required to reduce LNCaP viability” value (LNCaP cells [2]; medium supplemented with FBS) is reported as at least 2.5 µM. For the same compound, the “toxicity (cell viability) in LNCaP” value (LNCaP cells [3]) was “highest toxicity”, the “inhibitory effect on FEN1” value (FEN1) was “No inhibitory effect” and the “LNCaP cell proliferation, concentration dependence” value (LNCaP cells [4]; FBS medium) was “significantly inhibited by all concentrations”. The “LNCaP cell proliferation, concentration dependence” value (LNCaP cells [4]; medium with CSS) was 10 μM and 1 μM were inhibitory, the LNCaP cellular proliferation (LNCaP cells [4]; FBS) was “slowest proliferation rate” and the LNCaP cellular impedance (LNCaP cells [4]; androgen depleted medium (CSS)) was “abolished cellular impedance”. For the same compound, the RWPE1 cell viability (RWPE1 cells [5]) was “significantly decreased” and the “LAPC4 cellular proliferation and attachment” value (LAPC4 cells) was “abolished”.
